According to patent US12479847B2 (DANA-FARBER CANCER INSTITUTE, INC., priority 2019, dated 2025):

Tests used:
Assay in all cases: KINOMEscan (ScanMAX) kinase profiling
Type in all cases: binding
panel of 468 kinases [1] = target: T1, panel of 468 kinases (Homo sapiens, UniProt O94806); details: PRKD3; 1 μM; read-out: % control
T1 construct: purchased KINOMEscan (ScanMAX) service
T1 sequence (O94806 1-890): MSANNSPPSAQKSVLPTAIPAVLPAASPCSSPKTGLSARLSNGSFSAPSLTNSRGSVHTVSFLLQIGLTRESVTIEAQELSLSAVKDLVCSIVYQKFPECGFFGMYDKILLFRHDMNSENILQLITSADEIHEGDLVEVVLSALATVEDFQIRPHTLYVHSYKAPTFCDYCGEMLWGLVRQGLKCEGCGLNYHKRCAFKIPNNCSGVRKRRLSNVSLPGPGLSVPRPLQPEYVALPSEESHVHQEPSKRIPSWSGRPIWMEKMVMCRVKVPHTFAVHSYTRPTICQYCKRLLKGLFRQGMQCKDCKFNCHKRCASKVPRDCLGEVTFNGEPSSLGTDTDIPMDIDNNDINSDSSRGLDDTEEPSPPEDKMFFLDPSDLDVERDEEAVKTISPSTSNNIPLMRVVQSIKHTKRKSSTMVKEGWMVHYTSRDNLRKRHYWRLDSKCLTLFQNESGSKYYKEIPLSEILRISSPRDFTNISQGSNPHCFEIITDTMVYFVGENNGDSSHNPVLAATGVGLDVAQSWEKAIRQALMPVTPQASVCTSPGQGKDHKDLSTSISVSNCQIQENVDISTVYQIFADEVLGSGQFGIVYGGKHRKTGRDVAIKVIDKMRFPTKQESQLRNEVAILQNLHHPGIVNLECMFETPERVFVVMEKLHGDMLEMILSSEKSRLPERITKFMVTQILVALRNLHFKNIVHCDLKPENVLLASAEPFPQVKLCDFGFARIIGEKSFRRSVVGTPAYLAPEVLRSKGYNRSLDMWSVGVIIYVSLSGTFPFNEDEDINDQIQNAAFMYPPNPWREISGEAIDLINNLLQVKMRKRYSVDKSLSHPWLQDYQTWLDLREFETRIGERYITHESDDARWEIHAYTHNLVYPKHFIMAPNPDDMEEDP

panel of 468 kinases [2] = target: T2, panel of 468 kinases (Homo sapiens, UniProt Q08881); details: ITK; 1 μM; read-out: % control
T2 construct: purchased KINOMEscan (ScanMAX) service
T2 sequence (Q08881 1-620): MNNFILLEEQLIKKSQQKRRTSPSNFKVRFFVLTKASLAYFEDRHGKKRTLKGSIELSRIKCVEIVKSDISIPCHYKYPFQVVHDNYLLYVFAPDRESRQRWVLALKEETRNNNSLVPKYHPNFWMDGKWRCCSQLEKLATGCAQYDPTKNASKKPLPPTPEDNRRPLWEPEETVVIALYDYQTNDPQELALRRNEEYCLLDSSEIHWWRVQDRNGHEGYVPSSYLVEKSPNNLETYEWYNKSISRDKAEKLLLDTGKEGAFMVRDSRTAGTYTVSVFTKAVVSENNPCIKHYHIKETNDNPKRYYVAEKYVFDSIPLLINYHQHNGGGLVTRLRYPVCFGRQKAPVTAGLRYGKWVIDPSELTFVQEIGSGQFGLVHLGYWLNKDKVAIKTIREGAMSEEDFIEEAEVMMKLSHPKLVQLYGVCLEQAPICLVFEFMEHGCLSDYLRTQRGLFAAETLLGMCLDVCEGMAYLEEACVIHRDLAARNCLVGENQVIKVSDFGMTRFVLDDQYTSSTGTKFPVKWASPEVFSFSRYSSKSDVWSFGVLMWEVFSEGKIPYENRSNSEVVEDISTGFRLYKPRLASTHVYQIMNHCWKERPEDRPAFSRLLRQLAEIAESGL

panel of 468 kinases [3] = target: T3, panel of 468 kinases (Homo sapiens, UniProt Q13705); details: ACVR2B; 1 μM; read-out: % control
T3 construct: purchased KINOMEscan (ScanMAX) service
T3 sequence (Q13705 19-512): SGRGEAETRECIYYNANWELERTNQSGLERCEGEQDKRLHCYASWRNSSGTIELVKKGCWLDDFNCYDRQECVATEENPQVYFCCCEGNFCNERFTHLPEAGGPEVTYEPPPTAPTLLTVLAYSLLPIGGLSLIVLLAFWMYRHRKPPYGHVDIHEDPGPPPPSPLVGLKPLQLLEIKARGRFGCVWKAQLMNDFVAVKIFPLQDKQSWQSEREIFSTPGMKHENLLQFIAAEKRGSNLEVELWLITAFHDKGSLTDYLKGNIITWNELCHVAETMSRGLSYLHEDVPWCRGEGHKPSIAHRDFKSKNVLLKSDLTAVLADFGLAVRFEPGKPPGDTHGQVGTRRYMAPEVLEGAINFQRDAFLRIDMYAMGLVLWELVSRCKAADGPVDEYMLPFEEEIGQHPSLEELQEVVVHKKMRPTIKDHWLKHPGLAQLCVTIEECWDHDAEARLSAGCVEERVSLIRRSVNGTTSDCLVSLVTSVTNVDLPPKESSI

panel of 468 kinases [4] = target: T4, panel of 468 kinases (Homo sapiens, UniProt Q16816); details: PHKG1; 1 μM; read-out: % control
T4 construct: purchased KINOMEscan (ScanMAX) service
T4 sequence (Q16816 whole entry): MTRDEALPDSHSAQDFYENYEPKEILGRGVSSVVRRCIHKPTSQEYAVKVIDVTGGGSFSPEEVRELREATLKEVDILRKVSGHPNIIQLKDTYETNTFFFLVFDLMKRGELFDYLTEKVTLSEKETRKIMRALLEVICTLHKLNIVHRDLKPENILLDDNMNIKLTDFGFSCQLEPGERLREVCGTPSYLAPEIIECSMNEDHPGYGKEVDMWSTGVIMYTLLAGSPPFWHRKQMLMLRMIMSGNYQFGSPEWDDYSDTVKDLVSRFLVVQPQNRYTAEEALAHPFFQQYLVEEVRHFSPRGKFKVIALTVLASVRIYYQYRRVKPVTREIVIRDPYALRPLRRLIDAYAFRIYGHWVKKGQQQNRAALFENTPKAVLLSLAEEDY

| SMILES | remaining binding at 1 µM (panel of 468 kinases [1]) | remaining binding at 1 µM (panel of 468 kinases [2]) | remaining binding at 1 µM (panel of 468 kinases [3]) | remaining binding at 1 µM (panel of 468 kinases [4]) |
| --- | --- | --- | --- | --- |
| CNc1nc(Nc2ccc(C(=O)N3CCC(N4CCOCC4)CC3)c3c2OCO3)nc2[nH]cc(Cl)c12 [Compound 75, (7-((5-chloro-4-(methylamino)-7H-pyrrolo[2,3-d]pyrimidin-2-yl)amino)benzo[d][1,3]dioxol-4-yl)(4-morpholinopiperidin-1-yl)methanone] | 4% | 100% | 95% | 14% |
| CNc1nc(Nc2ccc(S(=O)(=O)N3CCC(N4CCOCC4)CC3)cc2OC)nc2[nH]cc(Cl)c12 [Compound 12, 5-chloro-N2-(2-methoxy-4-((4-morpholinopiperidin-1-yl)sulfonyl)phenyl)-N4-methyl-7H-pyrrolo[2,3-d]pyrimidine-2,4-diamine] | 28% | 92% | 79% | 25% |
| CNc1nc(Nc2ccc(P3(=O)CCN(C4CCOCC4)CC3)cc2OC)nc2[nH]cc(Cl)c12 [Compound 77, 4-(4-((5-chloro-4-(methylamino)-7H-pyrrolo[2,3-d]pyrimidin-2-yl)amino)-3-methoxyphenyl)-1-(tetrahydro-2H-pyran-4-yl)-1,4-azaphosphinane 4-oxide] | 13% | 97% | 73% | 8.4% |
